Assay results published in patent US20250136593A1, “DEGRADATION AGENT AND USE THEREOF” (HITGEN INC., priority 2021, published 2025).

System: MOLT-4 cells
Assay: Inhibitory activity on MOLT4 cell proliferation by Cell Titer-Glo method
Assay type: cell-based
Conditions: Homo sapiens, 72 hours incubation, read-out: IC50 concentration for inhibiting MOLT-4 cells
Protocol: Experimental Example 5, Evaluation Experiment of Inhibitory Activity of Compound on MOLT4 Cell Proliferation by Cell Titer-Glo Method
RPMI medium modified (Hyclone), FBS (Corning), Dimethyl Sulfoxide, P/S, CellTiter-Gbo Luminescent Cell Viability Assay (Promega), MOLT-4 cell (ATCC).
MOLT-4 cells were cultured in monolayer in vitro in an incubator containing 5% CO2 air at 37° C. The culture medium was RPMI 1640 with 10% FBS and 1% P/S. 15 μL of MOLT4 cells, containing 5×10^4 cells per ml, was inoculated to a 384-well plate (Corning, 3707), 750 cells/well, and incubated at 37° C. and 5% CO2 for 30 minutes. Then the compound that had been diluted in advance was added, with a total of 9 concentration points, and 2 parallel repetitions for each concentration point. The cell growing group without adding the compound was used as a negative control (maximum signal control), and the culture medium group was used as a blank control (minimum signal control). At the same time, it was ensured that the final DMSO content in each reaction well was 0.1%. The compound and the cells were incubated in a cell culture incubator at 37° C., 5% CO2 for 3 days (72 hours).
The 384-well plate was taken out from the cell culture incubator and allowed to stand at room temperature, equilibrated for 20 to 30 minutes, and then 25 μl of Cell Titer-Glo detection reagent was added to each reaction well, lysed on a shaker for 2 minutes, incubated for 10 minutes, and BMG PHERAStar (Luminescence) was used for reading.
The inhibition rate was calculated based on the luminescence signals: the average value of the negative control (maximum signal control) and the blank control (minimum signal control) was first calculated, then the inhibition rates of the compound at different concentrations for the cells were calculated as follows:
The IC50 of the compound to inhibit cell activity was calculated by fitting with GraphPad Prism 6 using log(inhibitor) vs. response−Variable slope mode. The fitting equation was: Y=Bottom+(Top−Bottom)/(1+10^((LogIC50−X)*HillSlope)), wherein Y represented the inhibition rate and X represented the known compound concentration after Log.

Compound | IC50 [µM]
O=C1CCC(N2Cc3cc(C#CCCCN4CCN(CC#Cc5ccc(/C=C/c6ccc(C(=O)N7CCc8cnc(-c9cnc%10ccccc%10c9)nc8C7)cc6)cc5)CC4)ccc3C2=O)C(=O)N1 (centres unmarked) [Compound D2-3] | > 200
O=C1CCC(c2cccc(C#CCCN3CCN(CC#Cc4ccc(OCC56CC(C(=O)N7CCc8cnc(-c9cnc%10ccccc%10c9)nc8C7)(C5)C6)cc4)CC3)c2)C(=O)N1 (centres unmarked) [Compound D2-16] | 1 to 10
O=C1CCC(N2Cc3cc(N4CCC(N5CCN(CC#Cc6ccc(/C=C/c7ccc(C(=O)N8CCc9cnc(-c%10cnc%11ccccc%11c%10)nc9C8)cc7)cc6)CC5)CC4)ccc3C2=O)C(=O)N1 (centres unmarked) [Compound F2-3] | 1 to 10
C=Cc1cc(-c2ncc3c(n2)CN(C(=O)c2ccc(COc4ccc(C#CCN5CCN(CCCCCOc6cccc7c6C(=O)N(C6CCC(=O)NC6=O)C7=O)CC5)cc4)nc2)CC3)cnc1C=C (centres unmarked) [Compound C3-12] | 50 to 100
O=C1CCC(N2Cc3c(cccc3N3CC4(CC(CN5CCN(CC#Cc6ccc(/C=C/c7ccc(C(=O)N8CCc9cnc(-c%10cnc%11ccccc%11c%10)nc9C8)cc7)cc6)CC5)C4)C3)C2=O)C(=O)N1 (centres unmarked) [Compound F3A-4] | 100 to 200
O=C1CCC(N2Cc3cc(CN4CC(N5CCN(CC#Cc6ccc(/C=C/c7ccc(C(=O)N8CCc9cnc(-c%10cnc%11ccccc%11c%10)nc9C8)cc7)cc6)CC5)C4)ccc3C2=O)C(=O)N1 (centres unmarked) [Compound F2-2] | 50 to 100
O=C1CCC(N2C(=O)c3ccc(N4CCN(CC5CCN(CC#Cc6ccc(OCC78CC(C(=O)N9CCc%10cnc(-c%11cnc%12ccccc%12c%11)nc%10C9)(C7)C8)cc6)CC5)CC4)cc3C2=O)C(=O)N1 (centres unmarked) [Compound F1B-4] | 1 to 10
C=Cc1cc(-c2nc3c(c(NC)n2)CCN(C(=O)c2ccc(COc4ccc(C#CCN5CCN(CCCCCOc6cccc7c6C(=O)N(C6CCC(=O)NC6=O)C7=O)CC5)cc4)cn2)C3)cnc1C=C (centres unmarked) [Compound C3-11] | 100 to 200
C=Cc1cc(-c2ncc3c(n2)CN(C(=O)c2ccc(/C=C/c4ccc(C#CCN5CCN(CCCCc6ccc7c(c6)CN(C6CCC(=O)NC6=O)C7=O)CC5)cc4)cc2)CC3)cnc1C=C (centres unmarked) [Compound C1-3] | 1 to 10
C/C=c1/cc(-c2ncc3c(n2)CN(C(=O)c2ccc(/C=C/c4ccc(C#CCN5CCN(CCCCCCc6cccc7c6CN(C6CCC(=O)NC6=O)C7=O)CC5)cc4)cc2)CC3)cn/c1=C/C (centres unmarked) [Compound C1-2] | > 200
O=C1CCC(N2Cc3cc(N4CCC(N5CCN(CC#Cc6ccc(OCC78CC(C(=O)N9CCc%10cnc(-c%11cnc%12ccccc%12c%11)nc%10C9)(C7)C8)cc6)CC5)CC4)ccc3C2=O)C(=O)N1 (centres unmarked) [Compound F2-10] | 1 to 10
O=C1CCC(N2Cc3c(CCCN4CC(N5CCN(CC#Cc6ccc(/C=C/c7ccc(C(=O)N8CCc9cnc(-c%10cnc%11ccccc%11c%10)nc9C8)cc7)cc6)CC5)C4)cccc3C2=O)C(=O)N1 (centres unmarked) [Compound F2-5] | > 200
O=C1CCC(N2Cc3c(CN4CC5(CC(N6CCN(CC#Cc7ccc(/C=C/c8ccc(C(=O)N9CCc%10cnc(-c%11cnc%12ccccc%12c%11)nc%10C9)cc8)cc7)CC6)C5)C4)cccc3C2=O)C(=O)N1 (centres unmarked) [Compound F3A-2] | 100 to 200
O=C1CCC(N2Cc3c(CCCN4CCC(N5CCN(CC#Cc6ccc(/C=C/c7ccc(C(=O)N8CCc9cnc(-c%10cnc%11ccccc%11c%10)nc9C8)cc7)cc6)CC5)CC4)cccc3C2=O)C(=O)N1 (centres unmarked) [Compound F2-6] | 100 to 200
O=C1CCC(N2Cc3c(C#CCCCCN4CCN(CC#Cc5ccc(/C=C/c6ccc(C(=O)N7CCc8cnc(-c9cnc%10ccccc%10c9)nc8C7)cc6)cc5)CC4)cccc3C2=O)C(=O)N1 (centres unmarked) [Compound D2-5] | 100 to 200
CNc1nc(-c2cnc3ccccc3c2)nc2c1CCN(C(=O)c1ccc(/C=C/c3ccc(C#CCN4CCN(CCCCCc5cccc6c5CN(C5CCC(=O)NC5=O)C6=O)CC4)cc3)cc1)C2 (centres unmarked) [Compound C1-4] | 1 to 10
CNc1nc(-c2cnc3ccccc3c2)nc2c1CCN(C(=O)c1ccc(/C=C/c3ccc(C#CCN4CCN(C(=O)CCCCCC(=O)N[C@H](C(=O)N5C[C@H](O)C[C@H]5C(=O)NCc5ccc(-c6scnc6C)cc5)C(C)(C)C)CC4)cc3)cc1)C2 [Compound G1-3] | > 200
